Measured values published in the NIST ThermoML archive (doi:10.1021/je049656o).

Assay: mn = molality of the nth substance listed, in mol/kg
Details: 298.15 K, 101.33 kPa, Liquid

O=c1[nH]cc(F)c(=O)[nH]1 [5-fluoro-2,4(1H,3H)-pyrimidinedione] + CO
Details | molar enthalpy of solution [kcal/mol]
m1 = 0.000844 | 3.46
m1 = 0.000963 | 3.44
m1 = 0.001039 | 3.41
m1 = 0.00126 | 3.43
m1 = 0.001578 | 3.42
m1 = 0.001848 | 3.47

O=c1cc[nH]c(=O)[nH]1 [2,4(1H,3H)-pyrimidinedione] + CO
Details | molar enthalpy of solution [kcal/mol]
m1 = 0.000848 | 3.57
m1 = 0.000858 | 3.6
m1 = 0.00105 | 3.34
m1 = 0.00109 | 3.34
m1 = 0.001223 | 3.27
m1 = 0.001317 | 3.27

O=c1[nH]cc(C(F)(F)F)c(=O)[nH]1 [5-(trifluoromethyl)uracil] + CO
Details | molar enthalpy of solution [kcal/mol]
m1 = 0.000648 | 3.83
m1 = 0.000687 | 3.95
m1 = 0.000724 | 3.75
m1 = 0.00076 | 3.6
m1 = 0.000813 | 3.59
m1 = 0.000845 | 3.78

O=c1[nH]cc(Br)c(=O)[nH]1 [5-bromouracil] + CO
Details | molar enthalpy of solution [kcal/mol]
m1 = 0.000472 | 3.53
m1 = 0.000548 | 3.35
m1 = 0.000563 | 3.73
m1 = 0.00102 | 3.59
m1 = 0.001023 | 3.61
m1 = 0.00125 | 3.48

O=c1[nH]cc(I)c(=O)[nH]1 [5-iodouracil] + CO
Details | molar enthalpy of solution [kcal/mol]
m1 = 0.000481 | 4.37
m1 = 0.000487 | 4.35
m1 = 0.000551 | 4.22
m1 = 0.000618 | 4.37
m1 = 0.000626 | 4.31
m1 = 0.000769 | 4.2

Oc1ncc(Cl)c(O)n1 [5-chloro-2,4-pyrimidinedione] + CO
Details | molar enthalpy of solution [kcal/mol]
m1 = 0.000652 | 2.12
m1 = 0.000899 | 2.3
m1 = 0.000901 | 2.29
m1 = 0.000954 | 2.23
m1 = 0.000982 | 2.11
m1 = 0.001245 | 2.12

O=c1cc(Cl)[nH]c(=O)[nH]1 [6-chlorouracil] + CO
Details | molar enthalpy of solution [kcal/mol]
m1 = 0.000624 | 4.02
m1 = 0.000862 | 4.06
m1 = 0.000948 | 4.13
m1 = 0.001116 | 4.04
m1 = 0.001609 | 4.28
m1 = 0.00168 | 4.15
